The text below walks through data of ChEMBL document CHEMBL5727267, “Compounds useful as inhibitors of ATR kinase” (2019).

The structures appear in SMILES notation.

By Ki is commonly meant a measure of affinity in units of concentration, obtained from inhibition or displacement.

The target in this experiment is Serine/threonine-protein kinase ATR (Homo sapiens, UniProt Q13535). The experiment in a line: Inhibition Assay: Compounds were screened for their ability to inhibit ATR kinase using a radioactive-phosphate incorporation assay. Assays were carried out in a mixture of 50 mM Tris/HCl (pH 7.5), 10 mM MgCl2 and 1 mM DTT. Final substrate concentrations were 10 μM [γ-33P]ATP (3mCi 33P ATP/mmol ATP, Perkin Elmer) and 800 μM target peptide ([…]) (SEQ ID NO:1).Assays were carried out at 25° C. in the presence of 5 nM full-length ATR. An assay stock buffer solution was prepared containing all of the reagents listed above, with the exception of ATP and the test compound of interest. 13.5 μL of the stock solution was placed in a 96 well plate followed by addition of 2 μL of DMSO stock containing serial dilutions of the test compound (typically starting from a final concentration of 15 μM with 3-fold serial dilutions) in duplicate (final DMSO concentration 7%). The plate was pre-incubated for 10 minutes at 25° C. and the reaction initiated by addition of 15 μL [γ-33P]ATP (final concentration 10 μM).The reaction was stopped after 24 hours by the addition of 30 μL 0.1M phosphoric acid containing 2 mM ATP. A multiscreen phosphocellulose filter 96-well plate (Millipore, Cat no. MAPHN0B50) was pretreated with 100 μL 0.2M phosphoric acid prior to the addition of […] of the stopped assay mixture. The plate was washed with 5×200 μL 0.2M phosphoric acid. After drying, 100 μL Optiphase ‘SuperMix’ liquid scintillation cocktail (Perkin Elmer) was added to the well prior to scintillation counting (1450 Microbeta Liquid Scintillation Counter, Wallac).
Sequence of Serine/threonine-protein kinase ATR (Q13535 whole entry): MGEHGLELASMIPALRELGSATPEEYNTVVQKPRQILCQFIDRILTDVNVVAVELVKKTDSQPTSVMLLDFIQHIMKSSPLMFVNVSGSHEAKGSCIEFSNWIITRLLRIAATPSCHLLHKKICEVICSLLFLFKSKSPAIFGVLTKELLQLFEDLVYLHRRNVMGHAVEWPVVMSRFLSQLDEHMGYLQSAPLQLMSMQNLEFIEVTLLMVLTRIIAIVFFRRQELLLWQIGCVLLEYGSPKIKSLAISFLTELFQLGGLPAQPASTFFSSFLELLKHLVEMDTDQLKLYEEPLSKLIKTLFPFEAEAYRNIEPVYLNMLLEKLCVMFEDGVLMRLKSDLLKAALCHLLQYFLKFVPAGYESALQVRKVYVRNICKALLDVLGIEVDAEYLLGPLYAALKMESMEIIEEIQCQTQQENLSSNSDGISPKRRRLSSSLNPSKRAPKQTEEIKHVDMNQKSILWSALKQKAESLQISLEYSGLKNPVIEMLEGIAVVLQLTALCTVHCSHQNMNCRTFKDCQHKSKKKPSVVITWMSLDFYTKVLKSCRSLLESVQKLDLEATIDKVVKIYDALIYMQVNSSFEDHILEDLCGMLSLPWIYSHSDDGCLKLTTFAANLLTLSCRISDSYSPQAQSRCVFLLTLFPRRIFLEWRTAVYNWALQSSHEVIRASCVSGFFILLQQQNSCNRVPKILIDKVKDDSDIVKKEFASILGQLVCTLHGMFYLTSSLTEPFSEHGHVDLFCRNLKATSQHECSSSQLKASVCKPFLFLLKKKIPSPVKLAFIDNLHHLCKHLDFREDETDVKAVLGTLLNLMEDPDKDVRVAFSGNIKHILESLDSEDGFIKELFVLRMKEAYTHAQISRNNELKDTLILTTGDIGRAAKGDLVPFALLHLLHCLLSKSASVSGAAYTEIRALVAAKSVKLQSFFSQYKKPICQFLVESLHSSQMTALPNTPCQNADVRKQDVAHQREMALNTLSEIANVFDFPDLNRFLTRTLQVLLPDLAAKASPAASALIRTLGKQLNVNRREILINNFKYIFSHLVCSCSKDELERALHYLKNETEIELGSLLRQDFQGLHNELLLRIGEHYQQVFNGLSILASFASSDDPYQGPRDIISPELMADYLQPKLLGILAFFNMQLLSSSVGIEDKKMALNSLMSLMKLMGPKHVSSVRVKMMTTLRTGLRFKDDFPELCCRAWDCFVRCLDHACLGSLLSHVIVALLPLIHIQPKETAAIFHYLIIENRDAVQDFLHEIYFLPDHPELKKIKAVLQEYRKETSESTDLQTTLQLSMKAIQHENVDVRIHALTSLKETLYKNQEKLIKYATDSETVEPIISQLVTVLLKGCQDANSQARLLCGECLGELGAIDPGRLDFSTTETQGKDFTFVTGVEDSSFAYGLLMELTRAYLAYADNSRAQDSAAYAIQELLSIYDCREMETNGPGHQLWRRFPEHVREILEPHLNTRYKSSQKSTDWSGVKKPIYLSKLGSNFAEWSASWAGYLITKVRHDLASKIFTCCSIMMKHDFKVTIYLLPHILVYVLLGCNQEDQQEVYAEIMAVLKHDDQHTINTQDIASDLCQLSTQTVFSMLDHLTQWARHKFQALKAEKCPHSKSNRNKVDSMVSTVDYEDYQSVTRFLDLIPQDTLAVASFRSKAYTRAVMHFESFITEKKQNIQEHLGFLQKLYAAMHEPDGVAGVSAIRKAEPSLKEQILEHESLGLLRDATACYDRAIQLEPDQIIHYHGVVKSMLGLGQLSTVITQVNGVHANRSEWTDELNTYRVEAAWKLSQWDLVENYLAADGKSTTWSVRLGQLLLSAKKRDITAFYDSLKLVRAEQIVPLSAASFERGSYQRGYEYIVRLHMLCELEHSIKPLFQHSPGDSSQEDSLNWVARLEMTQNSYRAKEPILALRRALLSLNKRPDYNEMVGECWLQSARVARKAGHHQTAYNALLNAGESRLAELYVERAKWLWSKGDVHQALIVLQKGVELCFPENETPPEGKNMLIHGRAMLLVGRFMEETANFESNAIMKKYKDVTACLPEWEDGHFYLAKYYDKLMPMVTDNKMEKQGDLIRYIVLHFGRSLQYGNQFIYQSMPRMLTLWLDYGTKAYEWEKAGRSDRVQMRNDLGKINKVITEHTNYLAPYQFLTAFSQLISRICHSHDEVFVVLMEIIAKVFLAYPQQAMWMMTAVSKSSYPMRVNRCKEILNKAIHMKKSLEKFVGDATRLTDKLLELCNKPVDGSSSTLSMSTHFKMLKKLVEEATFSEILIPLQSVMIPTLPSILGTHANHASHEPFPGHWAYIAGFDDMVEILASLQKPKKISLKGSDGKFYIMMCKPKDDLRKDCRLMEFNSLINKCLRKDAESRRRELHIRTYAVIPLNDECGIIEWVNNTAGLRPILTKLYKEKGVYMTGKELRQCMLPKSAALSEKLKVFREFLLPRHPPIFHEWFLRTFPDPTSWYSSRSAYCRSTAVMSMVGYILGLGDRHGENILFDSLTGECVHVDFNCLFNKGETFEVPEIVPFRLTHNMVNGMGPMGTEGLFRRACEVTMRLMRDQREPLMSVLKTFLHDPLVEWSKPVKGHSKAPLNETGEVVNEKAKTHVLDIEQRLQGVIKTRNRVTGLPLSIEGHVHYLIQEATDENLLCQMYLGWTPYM
As to `N#CCc1cnc2c(C(=O)Nc3cnccc3O[C@H]3CCNC3)c(N)nn2c1`, the Ki was less than 10 nM.
Turning to `CC(=O)N1CCN(c2ccncc2NC(=O)c2c(N)nn3cc(F)cnc23)CC1`, the inhibitory constant (Ki) fell in the range of 10 to 1000 nM.
Turning to `Nc1nn2cc(F)cnc2c1C(=O)Nc1cncc(F)c1N1CCC(C(=O)N2CCC(N3CCC3)CC2)CC1`, the Ki was less than 10 nM.
